Here are results for one compound from patent publication US12312352B2, “Use of a DPP-4 inhibitor in SIRS and/or sepsis” (Boehringer ingelheim International GmbH, priority 2012, dated 2025).

Series [1] is described as follows: Safety and tolerability in people with type 2 diabetes.
Series [2] in a line: Mean plasma concentration of linagliptin in rats on linagliptin diet. The settings on record: diet containing 0.083 mg/kg linagliptin. The series is classed as in vivo.
The test system of series [3] is septic rats. The experiment in a line: Survival of septic rats (LPS 10 mg/kg i.p.) with and without linagliptin treatment. It counts as in vivo, female Wistar rats. The settings on record: 24 hours after LPS 10 mg/kg i.p.; linagliptin diet from 2 days before LPS; LPS alone about 28%; p=0.015 LPS vs. LPS+Linagliptin; preliminary data. The method, then: Animals are injected at day 2 with 10 mg/kg LPS (lipopolysaccharide) i.p. and observed for 4 additional days.
It should be noted that the survival curve only represents preliminary data (“pseudo Kaplan-Meier-curve”) since the exact time point of death of the rats is not assessed. The female Wistar rats are injected with LPS in the morning, monitored during the day and transferred back to the stable in the evening. Deaths are registered in the morning of the next day.

In series [4] the test system is septic animals. The settings on record: cited from earlier work.
The nature of series [5]: Pharmacokinetics of BI 1356 after multiple oral doses (1, 2.5, 5 or 10 mg once daily for 12 days) in patients with type 2 diabetes.
In series [6] the test system is septic mice. The series is described as follows: Survival in experimental sepsis, first study: LPS 20 mg/kg i.p. on Day 6 of 7 days treatment. The settings on record: linagliptin 5 mg/kg/d in drinking water (p=0.067), liraglutide 0.2 mg/kg/d s.c. injection (p=0.005), placebo/LPS 100% die within 48 h.

With `CC#CCn1c(N2CCC[C@@H](N)C2)nc2c1c(=O)n(Cc1nc(C)c3ccccc3n1)c(=O)n2C` [linagliptin], the safety and tolerability entry in series [1] is listed as “placebo-like”. In series [2], this compound gave a mean plasma concentration of 50 to 150 nM. The mortality entry in series [3] is listed as “No mortality”. Further, the “vascular dysfunction, vascular inflammation and aortic, cardiac and blood oxidative stress” value in series [4] (experimental sepsis model) was “improves vascular dysfunction and vascular inflammation as well as aortic, cardiac, and blood oxidative stress”. In addition, the “immune cell infiltration into the vascular tissue” value in series [4] (septic animals, previous studies) is on record as “prevention of immune cell infiltration into the vascular tissue”. Moreover, the “form and route of excretion” value in series [5] (human, in vivo) is reported as “primarily excreted unchanged via the bile”. Besides, the “main organ of excretion” value in series [5] (therapeutic oral dose levels) is given as “mainly excreted via the liver”. Also, the “survival vs placebo/LPS group” value in series [6] was “trend for a higher survival rate”.
